Earlier results in patent US20090118340A1, “Method for inhibiting and/or preventing formation of cancer metastases and seconddary malignant cancers” (priority 2007, published 2009).

Test system: murine leukemia L1210
Details: for cytotoxicity in cultured leukemia cells: Pharmacological Reports, 2007, 59, 216-223

## C[n+]1cccc([N+](=O)[O-])c1.[Cl-] [3-nitro-1-methylpyridinium chloride, reference compound]
  cytotoxicity in cultured leukemia cells: highest cytotoxicity

## C[n+]1cccc(C(N)=O)c1 [MNA, 1-methylnicotinamide]
  cytotoxicity in cultured leukemia cells: negligible
Observed only at very high concentration
  cytotoxicity, factor lower than 3-nitro-1-methylpyridinium chloride: about 7000
